Test results taken from article PMC12682947, “Identification of New KCNT1‐Epilepsy Drugs by In Silico, Cell, and Drosophila Modeling” (Annals of Neurology, 2025).
Structures can show the parent of a compound that is named as a salt.

Biological target: T1, WT KCNT1 channels (Homo sapiens, UniProt Q5JUK3)
T1 construct: YFP-6His; expressed in transfected cells; host or cells: HEK293T
T1 sequence (Q5JUK3 1-1235 isoform Q5JUK3-3): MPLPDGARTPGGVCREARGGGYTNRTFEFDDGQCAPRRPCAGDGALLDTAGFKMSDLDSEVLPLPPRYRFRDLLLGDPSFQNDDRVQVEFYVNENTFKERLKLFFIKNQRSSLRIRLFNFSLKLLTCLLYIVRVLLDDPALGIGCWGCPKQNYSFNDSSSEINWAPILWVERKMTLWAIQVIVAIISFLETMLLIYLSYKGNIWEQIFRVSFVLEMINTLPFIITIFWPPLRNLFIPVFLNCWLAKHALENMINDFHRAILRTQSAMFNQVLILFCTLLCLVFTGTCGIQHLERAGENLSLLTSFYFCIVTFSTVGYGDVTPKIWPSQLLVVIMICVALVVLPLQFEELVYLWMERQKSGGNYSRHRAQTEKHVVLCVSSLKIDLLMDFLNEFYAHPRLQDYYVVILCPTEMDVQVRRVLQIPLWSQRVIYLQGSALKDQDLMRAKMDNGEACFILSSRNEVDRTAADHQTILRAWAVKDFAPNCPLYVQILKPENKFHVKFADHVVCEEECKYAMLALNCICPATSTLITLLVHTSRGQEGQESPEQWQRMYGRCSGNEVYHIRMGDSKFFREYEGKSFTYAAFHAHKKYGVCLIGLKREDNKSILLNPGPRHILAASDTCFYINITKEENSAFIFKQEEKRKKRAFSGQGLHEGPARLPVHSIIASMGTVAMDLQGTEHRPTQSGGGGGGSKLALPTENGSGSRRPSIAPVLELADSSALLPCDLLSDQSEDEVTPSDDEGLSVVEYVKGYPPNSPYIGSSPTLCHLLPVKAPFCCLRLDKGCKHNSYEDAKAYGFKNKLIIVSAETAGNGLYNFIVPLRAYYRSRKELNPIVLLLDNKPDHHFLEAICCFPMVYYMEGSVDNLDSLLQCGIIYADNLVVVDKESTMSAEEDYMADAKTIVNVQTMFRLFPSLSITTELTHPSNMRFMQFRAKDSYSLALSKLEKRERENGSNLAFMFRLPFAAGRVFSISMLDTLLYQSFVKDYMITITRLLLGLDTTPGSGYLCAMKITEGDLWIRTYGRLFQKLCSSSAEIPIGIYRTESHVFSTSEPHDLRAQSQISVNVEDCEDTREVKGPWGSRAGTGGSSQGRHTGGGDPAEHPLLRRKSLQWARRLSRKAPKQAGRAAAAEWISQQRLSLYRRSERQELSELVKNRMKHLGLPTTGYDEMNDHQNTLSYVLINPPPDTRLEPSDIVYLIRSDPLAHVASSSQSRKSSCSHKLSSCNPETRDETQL
Experiment: Inside-out patch clamp of HEK293T cells expressing WT KCNT1 channels
Format: cell-based
Conditions: inside-out patches; for inhibition at 0.05 µM: HEK-293T, 50 nM, read-out: inhibition of WT human KCNT1 channel activity; for IC50: WT, mean ± SEM
Description: The CHO cells were cultured in Dulbecco's modified Eagle's Medium (ThermoFisher, UK) supplemented with 10% (v/v) fetal bovine serum, 50 U/ml penicillin and 0.05 mg/ml streptomycin, and incubated at 37°C in 5% CO2 atmosphere. For whole cell recording of WT/Y796H KCNT1, CHO cells were transiently co‐transfected with concatemeric WT/Y796H and EYFP, as described previously.[29] For electrophysiological experiments, cells were plated onto borosilicate glass cover slips and used 2 to 4 days later. Human embryonic kidney 293T cells (HEK293T) were cultured in the same manner, but with medium supplemented with 2 mM L‐glutamine, and 1% (v/v) nonessential amino acids. For excised inside‐out recording of homomeric WT or mutant YFP‐tagged KCNT1, HEK293T cells plated on glass cover slips were transfected using Attractene Transfection Reagent (Qiagen, Germany) according to the manufacturer's instructions and used 2 to 3 days later.
Inside‐out patch clamp recordings were made at room temperature (23°C) from transiently transfected HEK293T cells, as described previously.[11] The pipette solution contained, in mM, 140 NaCl, 4 KCl, 2 CaCl2, 2 MgCl2, and 10 HEPES adjusted to pH 7.4 with NaOH. After achieving the inside‐out configuration, the intracellular face of the membrane was constantly perfused with a solution containing, in mM, 35 NaCl, 110 KCl, 0.2 EGTA, and 10 HEPES adjusted to pH 7.3 with KOH. Drug stock solutions of 5 to 20 mM in DMSO were first diluted in ethanol (1:10) and then in electrophysiological solution. KCNT1 currents were recorded using 2 voltage protocols, depending on the number of active channels in the patch before drug application. Macroscopic currents (number of active channels > 15) were recorded in response to 100 ms voltage ramps between −120 and 120 mV applied every 2 seconds from a holding potential of −78 mV. The average current amplitudes between 0 and 40 mV were used for the analyses and constructing the concentration‐response curves. With a lower number of active channels in the patch (3–15), current traces were recorded in response to 15‐second voltage steps to −20, 0, and 20 mV from a holding potential of −78 mV. Currents recorded at each voltage and each drug concentration were averaged over the duration of the trace and normalized to the average amplitudes of the corresponding current traces in drug‐free solution. The normalized data for all 3 voltage steps were then averaged for each drug concentration and used to build the concentration‐response curves (see Supplementary Fig S3). To determine the IC50, data were fitted with the Hill equation, as described previously.[11] Single channel data were analyzed using Ana software developed by Dr Michael Pusch (Istituto di Biofisica, Genova, Italy; http://users.ge.ibf.cnr.it/pusch/programs-mik.htm). In patch clamp data “n” represents number of cells, and all experiments were repeated using cells from a minimum of 2 separate transfections.

With `O=C(OCCN1CCN(c2cccc(C(F)(F)F)c2)CC1)c1ccccc1Nc1ccnc2cc(C(F)(F)F)ccc12` [antrafenine] the inhibition at 0.05 µM was > 60% and the IC50 was 12.6 ± 3.6 nM.
For `CC(C)c1c(C(=O)Nc2ccccc2)c(-c2ccccc2)c(-c2ccc(F)cc2)n1CC[C@@H](O)C[C@@H](O)CC(=O)O` [atorvastatin], the “inhibition of KCNT1 activity at 10 μM (in words)” value was “not fully inhibiting” and the IC50 was 1900 ± 600 nM.
`Cc1c(O)cccc1C(=O)N[C@@H](CSc1ccccc1)[C@H](O)CN1C[C@H]2CCCC[C@H]2C[C@H]1C(=O)NC(C)(C)C` [nelfinavir mesylate] was tested, and the inhibition at 0.05 µM was > 60% and the IC50 was 14.3 ± 2.6 nM.
For `CNC(=O)c1cc(Oc2ccc(NC(=O)Nc3ccc(Cl)c(C(F)(F)F)c3)c(F)c2)ccn1` [regorafenib], the “inhibition of KCNT1 activity at 10 μM (in words)” value was “not fully inhibiting”.
